The values below come from patent US7253192B2, “Phenyl derivatives comprising an acetylene group” (Hoffmann-La Roche Inc., priority 2004, dated 2007).

One data set concerns the target T1, PPARγ (Mus musculus, UniProt P37238).
T1 construct: PPARγ (aa 174 to 476); made in house; host or cells: E. coli BL21 (pLysS)
T1 sequence (P37238 204-505): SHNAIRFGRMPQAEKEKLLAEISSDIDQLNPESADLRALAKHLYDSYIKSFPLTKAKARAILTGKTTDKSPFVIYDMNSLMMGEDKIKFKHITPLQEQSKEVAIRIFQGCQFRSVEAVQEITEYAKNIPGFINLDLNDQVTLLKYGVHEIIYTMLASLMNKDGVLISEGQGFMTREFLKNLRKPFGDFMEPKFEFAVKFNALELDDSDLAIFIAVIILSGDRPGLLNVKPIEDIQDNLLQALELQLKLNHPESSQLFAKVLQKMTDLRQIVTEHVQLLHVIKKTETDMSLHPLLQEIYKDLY
As to the kind of experiment: Radioligand binding assay (SPA), PPARγ receptor binding. The note with it: GST-PPARγ-LBD fusion protein, scintillation proximity radioligand binding. An excerpt: (§1) Full-length cDNA clones for humans PPARδ and PPARα and mouse PPARγ were obtained by RT-PCR from human adipose and mouse liver cRNA, respectively, cloned into plasmid vectors and verified by DNA sequencing. Bacterial and mammalian expression vectors were constructed to produce glutathione-s-transferase (GST) and Gal4 DNA binding domain proteins fused to the ligand binding domains (LBD) of PPARδ (aa 139 to 442), PPARγ (aa 174 to 476) and PPARα (aa 167 to 469). To accomplish this, the portions of the cloned sequences encoding the LBDs were amplified from the full-length clones by PCR and then subcloned into the plasmid vectors. Final clones were verified by DNA sequence analysis.
(§2) Induction, expression, and purification of GST-LBD fusion proteins were performed in E. coli strain BL21 (pLysS) cells by standard methods (Ref: Current Protocols in Molecular Biology, Wiley Press, edited by Ausubel et al.).
PPARγ receptor binding was assayed in TKE50 (50 mM Tris-HCl, pH 8, 50 mM KCl, 2 mM EDTA, 0.1 mg/ml fatty acid-free BSA and 10 mM DTT). For each 96 well reaction an 140 ng equivalent of GST-PPARγ-LBD fusion protein was bound to 10 μg SPA beads (PharmaciaAmersham) in a final volume of 50 μl by shaking. The resulting slurry was incubated for 1 h at RT and centrifuged for 2 min at 1300 g. The supernatant containing unbound protein was removed and the semidry pellet containing the receptor-coated beads was resolved in 50 ul of TKE. For radioligand binding e.g. 10000 dpm 2(S)-(2-benzoyl-phenylamino)-3-{4-[1,1-ditritio-2-(5-methyl-2-phenyl-oxazol-4-yl)-ethoxy]-phenyl}-propionic acid in 50 μl were added, the reaction incubated at RT for 1 h and scintillation proximity counting performed. All binding assays were performed in 96 well plates and the amount of bound ligand measured on a Packard TopCount using OptiPlates (Packard). Nonspecific binding was determined in the presence of 10^−4 M unlabelled compound. Dose response curves were done in triplicates within a range of concentration from 10^−10 M to 10^−4 M.

A further data set addresses T2, PPARα (Homo sapiens, UniProt Q07869).
T2 construct: PPARα (aa 167 to 469); made in house; host or cells: E. coli BL21 (pLysS)
T2 sequence (Q07869 167-468 limits assumed): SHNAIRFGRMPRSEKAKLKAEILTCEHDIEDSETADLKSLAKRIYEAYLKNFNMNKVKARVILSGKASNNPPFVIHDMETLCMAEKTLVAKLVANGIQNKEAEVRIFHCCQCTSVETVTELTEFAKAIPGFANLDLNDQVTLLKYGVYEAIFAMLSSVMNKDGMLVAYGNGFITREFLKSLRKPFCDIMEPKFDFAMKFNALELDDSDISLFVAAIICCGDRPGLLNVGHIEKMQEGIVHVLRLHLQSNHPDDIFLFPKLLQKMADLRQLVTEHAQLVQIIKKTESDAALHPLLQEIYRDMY
As to the kind of experiment: Radioligand binding assay (SPA), PPARα receptor binding. Conditions: GST-PPARα-LBD fusion protein, scintillation proximity radioligand binding.
Source text: as §1, §2
PPARα receptor binding was assayed in TKE50 (50 mM Tris-HCl, pH 8, 50 mM KCl, 2 mM EDTA, 0.1 mg/ml fatty acid-free BSA and 10 mM DTT). For each 96 well reaction an 140 ng equivalent of GST-PPARα-LBD fusion protein was bound to 10 μg SPA beads (PharmaciaAmersham) in a final volume of 50 μl by shaking. The resulting slurry was incubated for 1 h at RT and centrifuged for 2 min at 1300 g. The supernatant containing unbound protein was removed and the semidry pellet containing the receptor-coated beads was resolved in 50 μl of TKE. For radioligand binding e.g. 10000 dpm of 2(S)-(2-benzoyl-phenylamino)-3-{4-[1,1-ditritio-2-(5-methyl-2-phenyl-oxazol-4-yl)-ethoxy]-phenyl}-propionic acid or 2,3-ditritio-2(S)-methoxy-3-{4-[2-(5-methyl-2-phenyl-oxazol-4-yl)-ethoxy]-benzo [b]thiophen-7-yl}-propionic acid in 50 ul were added, the reaction incubated at RT for 1 h and scintillation proximity counting performed. All binding assays were performed in 96 well plates and the amount of bound ligand measured on a Packard TopCount using OptiPlates (Packard). Nonspecific binding was determined in the presence of 10^−4 M unlabelled compound. […]

The next data set deals with T3, PPARδ (Homo sapiens, UniProt Q03181).
T3 construct: PPARδ (aa 139 to 442); made in house; host or cells: E. coli BL21 (pLysS)
T3 sequence (Q03181 139-441 limits assumed): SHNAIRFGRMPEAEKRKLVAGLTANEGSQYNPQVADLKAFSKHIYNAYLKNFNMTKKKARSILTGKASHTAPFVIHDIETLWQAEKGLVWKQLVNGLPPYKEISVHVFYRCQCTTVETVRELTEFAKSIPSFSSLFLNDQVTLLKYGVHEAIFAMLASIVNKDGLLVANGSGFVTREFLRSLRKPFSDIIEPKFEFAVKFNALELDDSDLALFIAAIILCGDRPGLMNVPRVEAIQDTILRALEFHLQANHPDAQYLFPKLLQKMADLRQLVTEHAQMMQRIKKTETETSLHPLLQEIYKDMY
The experiment in a line: Radioligand binding assay (SPA), PPARδ receptor binding. The note with it: GST-PPARδ-LBD fusion protein, scintillation proximity radioligand binding.
Source text: as §1, §2
PPARδ receptor binding was assayed in HNM10 (50 mM Hepes, pH 7.4, 10 mM NaCl, 5 mM MgCl2, 0.15 mg/ml fatty acid-free BSA and 15 mM DTT). For each 96 well reaction a 500 ng equivalent of GST-PPARδ-LBD fusion protein and radioligand, e.g. 20000 dpm {2-methyl-4-[4-methyl-2-(4-trifluoromethyl-phenyl)-thiazol-5-yl-ditritiomethylsulfanyl]-phenoxy}-acetic acid, was bound to 10 μg SPA beads (PharmaciaAmersham) in a final volume of 50 μl by shaking. The resulting slurry was incubated for 1 h at RT and centrifuged for 2 min at 1300 g. The supernatant containing unbound protein was removed and the semidry pellet containing the receptor-coated beads was resuspended in 50 μl of HNM. Radioligand was added and the reaction incubated at RT for 1 h and scintillation proximity counting performed in the presence of test compounds was determined. All binding assays were performed in 96 well plates and the amount of bound ligand was measured on a Packard TopCount using OptiPlates (Packard). Dose response curves were done in triplicates within a range of concentration from 10^−10 M to 10^−4 M.

In the case of `Cc1cc(OCCC#Cc2ccc(OC(F)(F)F)cc2)ccc1OC(C)(C)C(=O)O` [Example 17, 2-Methyl-2-{2-methyl-4-[4-(4-trifluoromethoxy-phenyl)-but-3-ynyloxy]-phenoxy}-propionic acid], the melting point was 62 to 71 °C (dec.). On PPARγ, this compound registered an IC50 greater than 10000 nM. Further, the concentration for half-maximal inhibition (IC50) on PPARα stood at 18 nM. This compound displayed an IC50 on PPARδ of 203 nM.
